From patent US11702428B2, “Chemical compounds as inhibitors of interleukin-1 activity” (Genentech, Inc., priority 2017, dated 2023)
Entries after “also recorded” stand apart in the source; their conditions may differ. Like-named read-outs stand apart in the source and are kept apart here.

How the values were obtained:
[1] = Human microsomal stability (Eh); format: in vitro ADME; details: hepatic extraction ratio; 0.5 mg/mL microsomal protein, 1 μM, NADPH; liver blood flow 20.7 mL/min/kg
Method: The stock solutions of test article and positive control were prepared at a concentration of 10 mM using DMSO as diluents. All stock solutions were then diluted to working concentrations at 0.25 mM with 70% acetonitrile. The cofactor used in this study was NADPH regenerating system, that was composed of 6.5 mM NADP, 16.5 mM G-6-P, 3 U/mL G-6-P D. The quench reagent was consisted of acetonitrile containing tolbutamide and propanolol (serve as internal standard). Incubation mixtures containing 0.5 mg/mL liver microsomal protein and […] test article/positive control in 100 mM potassium phosphate buffer.
The 0-minute samples were prepared by addition of an 80 μL aliquot of each incubation mixture to 300 μL quench reagent to precipitate proteins. The samples were vortexed, and then a 20 μL aliquot of the NADPH regenerating system was added in. The reaction was initiated by addition of 80 μL of the NADPH regenerating system to 320 μL of each incubation mixture. The final incubation conditions achieved in 400 μL are: 0.5 mg/mL microsomal protein, 1 μM test article/positive control, 1.3 mM NADP, 3.3 mM glucose 6 phosphate, 0.6 U/mL glucose 6 phosphate dehydrogenase. The mixtures were incubated in a 37° C. water bath with gentle shaking. A 100 μL aliquot of each mixture was removed at 10, 30, 90 minutes to a clean 96-well plate which contains 300 μL quench reagent to precipitate proteins, and centrifuged (4000×g, 10 min). 80 μL of supernatant are taken into 96-well assay plates pre-added with 160 μL ultrapure water, and then analyzed by LC-MS/MS. Hepatic extraction ratio (Eh) values were calculated from measured in vitro clearance assuming a human liver blood flow of 20.7 mL/min/kg. Eh values of <0.3 are indicative of compounds with favorable metabolic stability.

[2] = test system: LPS and nigericin stimulated cells; test: cells; format: cell-based; details: Homo sapiens, read-out: CTG protective IC50
Method: Viability of compound treated cells is measured using CellTiter-Glo® assay (Promega, Madison, Wis.) that measures the ATP content of cells which is proportional to the number of live cells within a well. This is a counter-screen to establish that the reduction of IL-1β levels in LPS and nigericin stimulated and compound treated cells is not due to cytotoxicity, but rather through the inhibition of the inflammasome pathway. Compounds inhibiting NRLP3 inflammasome activation ultimately increase the viability of LPS and nigericin stimulated cells by blocking NLRP3 mediated pyroptosis that would otherwise lead to cell lysis.

TNFα = TNFα levels of LPS and nigericin stimulated cells (counter-screen); format: cell-based, human
Method: (§1) For ELISA assays cells were seeded into 96-well plates. Post study, supernatants were removed and the levels of mature IL-1β, IL-18 and TNFα (Quantikine ELISA, R&D systems) were measured in cell conditioned media by ELISA according to manufacturer's instructions.
TNFα levels of LPS and nigericin stimulated cells is measured by HTRF assay (Cisbio, Bedford, Mass.). […] Measuring TNFalpha production also serves as a technical counter-screen to eliminate compounds that interfere with the HTRF reagents. Thus compounds that inhibit both IL-1β and TNFα levels are triaged for either being non-selective for inflammasome or interfering with the HTRF readout.

NLRP3 inflammasome [3] = target: T1, NLRP3 inflammasome (Homo sapiens, UniProt Q96P20); test: NLRP3 inflammasome activation assay in PBMCs (LPS priming, nigericin), IL-1β by ELISA; format: cell-based; design: Human peripheral blood mononuclear cells (PBMCs); host or cells: primary human PBMCs from healthy donors; details: for IC50: LPS, nigericin, read-out: PBMC IL-1β IC50
Method: (§2) Some of the following assays were used to determine the inhibitory activity of the compounds on the NLRP3 inflammasome using a common inflammasome activation stimuli-nigericin.
Human peripheral blood mononuclear cells (PBMCs), consisting of lymphocytes (T, B and NK cells), monocytes and dendritic cells, were freshly isolated from human peripheral blood from healthy donors. Cells were obtained through an IRB approved donor program by iXCells Biotechnologies where all the donors were tested for bacterial and viral infections. Cells were purified from peripheral blood using ficoll gradient centrifugation.
(§3) Cells were then stimulated with 10 uM Nigericin (Sigma Aldrich; InvivoGen) for 1.5 h. Plates were centrifuged at 1,500 rpm for 3 minutes to pellet cells and supernatant was transferred into new plates for subsequent experiments.
as §1

NLRP3 inflammasome [4] = target: T1, NLRP3 inflammasome; test: NLRP3 inflammasome activation assay in Kupffer cells (LPS priming, nigericin), IL-1β/IL-18 by ELISA; format: cell-based; details: KCs; LPS, nigericin; read-out: KC IL-1β IC50
From the text: as §2
Human Kupffer cells (KCs), specialized liver macrophages residing in […], were obtained by gradient isolation from liver specimens harvested post-mortem by Samsara Sciences. Cells were obtained through an IRB approved donor program by Samsara Sciences and all donors tested negative for bacterial and viral infections.
as §3, §1

IL-1β = test: LPS/ATP challenge model in C57BL/6 mice, IL-1β in peritoneal lavage; format: in vivo; details: 3.5 hours post dose
Method: The purpose of this study was to determine the effects of Compounds 1 and 2 treatment on cytokine production after LPS/ATP injection in female C57BL/6 mice.
On Day −1 mice were weighed and assigned to groups per Table 2 (see below) in a balanced manner to achieve similar average weight across the groups at the start of the study.
All mice received a single dose of treatment or vehicle, at hour minus 1.
At hour 0, all mice received 1 μg of lipopolysaccharide, ultra pure (LPS, InvivoGen, San Diego, Calif.) in 0.5 ml PBS, intraperitoneally.
At hour 2 (two hours after LPS injection), all mice were injected intraperitoneally with 0.5 ml of 80 mM ATP disodium salt (Sigma, pH adjusted to 7.2 before injection).
At hour 2.5 (30 minutes after ATP injection and 3.5 hours after compound dosing), blood from all mice was collected via retro-orbital bleeding into K2 EDTA tubes and plasma was prepared and stored at […]. Samples were shipped to the customer or vendor of customers choosing within 7 days of completing the study.
Immediately after the collection of blood, each mouse was euthanized, the peritoneal cavity was lavaged with 3 ml of ice-cold PBS containing 25 U/ml heparin sodium salt, cocktail of protease inhibitors (Complete™ ULTRA Tablets, Sigma, Roche), and 10% FBS. Approximately 1 ml of the lavage was collected, spun down to remove cells and the supernatant stored at −80° C.
Compound powders were stored at 4° C. All compounds were prepared fresh. Compounds were weighed out and first ground with a mortar and pestle, then ground with a small amount of vehicle. The mortar was then repeatedly rinsed with vehicle to remove all material and achieve the correct concentration. The final solution was vortexed to create a homogeneous mixture
Mouse IL-1β and TNFα concentrations in peritoneal lavage samples were determined using Becton Dickinson (Franklin Lakes, N.J.) CBA analysis kit, according to manufacturer's protocol. A single analysis was performed on each sample.
Concentrations of cytokines were compared using Student t-test.

pro-caspase-1 = test: Inhibition of Caspase1 activation in bone marrow derived macrophages (Western Blot); format: cell-based, mouse; details: 10 μM; BMDMs, LPS 100 ng/ml 3 hours, nigericin 10 μM 90 minutes
[5] = LPS and nigericin stimulated cells, CellTiter-Glo

T1 sequence (Q96P20 whole entry): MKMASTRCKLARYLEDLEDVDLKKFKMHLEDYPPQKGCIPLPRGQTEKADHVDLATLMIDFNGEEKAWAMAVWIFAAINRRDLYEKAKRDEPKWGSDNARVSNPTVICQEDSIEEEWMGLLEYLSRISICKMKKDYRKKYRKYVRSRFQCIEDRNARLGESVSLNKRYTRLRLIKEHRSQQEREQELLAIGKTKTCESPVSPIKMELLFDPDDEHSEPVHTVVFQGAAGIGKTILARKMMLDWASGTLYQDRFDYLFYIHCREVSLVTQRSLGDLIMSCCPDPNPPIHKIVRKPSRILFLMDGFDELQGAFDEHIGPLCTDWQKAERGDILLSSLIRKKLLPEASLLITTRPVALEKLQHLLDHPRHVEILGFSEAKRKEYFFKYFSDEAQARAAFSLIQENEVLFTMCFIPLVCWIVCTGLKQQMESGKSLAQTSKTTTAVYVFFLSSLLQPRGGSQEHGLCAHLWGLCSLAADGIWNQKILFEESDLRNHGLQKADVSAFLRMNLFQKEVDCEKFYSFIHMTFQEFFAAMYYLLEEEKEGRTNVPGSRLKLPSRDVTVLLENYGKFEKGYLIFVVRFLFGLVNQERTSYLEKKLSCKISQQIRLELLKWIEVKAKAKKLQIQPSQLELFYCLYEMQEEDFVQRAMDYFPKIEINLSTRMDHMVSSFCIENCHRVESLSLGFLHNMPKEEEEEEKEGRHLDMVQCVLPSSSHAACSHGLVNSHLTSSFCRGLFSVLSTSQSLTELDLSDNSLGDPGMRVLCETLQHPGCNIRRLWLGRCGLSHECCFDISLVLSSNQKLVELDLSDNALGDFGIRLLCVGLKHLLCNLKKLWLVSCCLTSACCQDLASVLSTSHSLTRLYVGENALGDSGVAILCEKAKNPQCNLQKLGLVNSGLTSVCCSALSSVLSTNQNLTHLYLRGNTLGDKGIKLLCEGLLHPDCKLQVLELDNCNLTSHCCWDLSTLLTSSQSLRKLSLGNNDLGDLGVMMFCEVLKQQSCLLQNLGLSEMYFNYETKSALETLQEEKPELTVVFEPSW

SMILES	Human Microsomal Stability (Eh) [1]	TNFα IC50 (PBMC or KC) (TNFα)	IC50 (NLRP3 inflammasome [3]) [nM]	IC50 [2, 5] [nM]	IC50 (NLRP3 inflammasome [4]) [nM]	further results
O=C(Nc1c2c(cc3c1CCC3)CCC2)NS(=O)(=O)c1cnn2c1OCCC2	0.3	No Curve	–	–	–	IC50 [2]: < 100 nM
Cc1c2c(c(NC(=O)NS(=O)(=O)c3cnn4c3OCCC4)c3c1CCC3)CCC2	–	No Curve	100 to 1000	100 to 1000	–	–
CO[C@H]1COc2c(S(=O)(=O)NC(=O)Nc3c4c(cc5c3CCC5)CCC4)cnn2C1	0.3	No Curve	< 100	< 100	< 100	–
CO[C@@H]1COc2c(S(=O)(=O)NC(=O)Nc3c4c(cc5c3CCC5)CCC4)cnn2C1	0.2	No Curve	100 to 1000	100 to 1000	100 to 1000	–
O=C(Nc1c2c(cc3c1CCC3)CCC2)NS(=O)(=O)c1cc2n(n1)CCOC2	–	No Curve	100 to 1000	100 to 1000	–	–
O=C(Nc1c2c(cc3c1CCC3)CCC2)NS(=O)(=O)c1cnn2c1OC[C@H](O)C2	<0.1	No Curve	< 100	< 100	< 100	–
C[C@H]1COc2c(S(=O)(=O)NC(=O)Nc3c4c(cc5c3CCC5)CCC4)cnn2C1	–	No Curve	< 100	< 100	< 100	–
CCO[C@H]1COc2c(S(=O)(=O)NC(=O)Nc3c4c(cc5c3CCC5)CCC4)cnn2C1	0.4	No Curve	< 100	< 100	< 100	–
O=S(=O)(NC(=S)Nc1c2c(cc3c1CCC3)CCC2)c1cnn2c1OCCC2 [Compound 3, N-((1,2,3,5,6,7-hexahydro-s-indacen-4-yl)carbamothioyl)-6,7-dihydro-5H-pyrazolo[5,1-b][1,3]oxazine-3-sulfonamide]	–	–	–	–	–	IL-1β production in PBMCs (FIG. 1) (NLRP3 inflammasome [3]): inhibition; % Decrease of IL-1β vs. Vehicle (IL-1β; single oral dose 0.25 mg/kg): 53.0%; Mean (IL-1β) (IL-1β; single oral dose 0.25 mg/kg): 781.8 pg/mL; % Decrease of IL-1β vs. Vehicle (IL-1β; single oral dose 1 mg/kg): 96.5%; Mean (IL-1β) (IL-1β; single oral dose 1 mg/kg): 57.7 pg/mL; % Decrease of IL-1β vs. Vehicle (IL-1β; single oral dose 2.5 mg/kg): 99.1%; Mean (IL-1β) (IL-1β; single oral dose 2.5 mg/kg): 14.6 pg/mL
O=C(Nc1c2c(cc3c1CCC3)CCC2)NS(=O)(=O)c1cnn2c1CCCC2 [Compound 4, N-((1,2,3,5,6,7-hexahydro-s-indacen-4-yl)carbamoyl)-4,5,6,7-tetrahydropyrazolo[1,5-a]pyridine-3-sulfonamide]	–	–	–	–	–	activation of pro-caspase-1 (p45 and p10 bands, Western Blot) (pro-caspase-1): blocked; also recorded: inhibition of activation
CC1(C)COc2c(S(=O)(=O)NC(=O)Nc3c4c(cc5c3CCC5)CCC4)cnn2C1 [drawing 513]	0.5	No Curve	< 100	< 100	< 100	–
O=C(Nc1c2c(cc3c1CCC3)CCC2)NS(=O)(=O)c1cnn2c1OCC(O)C2 (centres unmarked) [drawing 514]	0.1	No Curve	< 100	< 100	< 100	–
COC1COc2c(S(=O)(=O)NC(=O)Nc3c4c(cc5c3CCC5)CCC4)cnn2C1 (centres unmarked) [drawing 518]	–	No Curve	< 100	< 100	< 100	–
CC1CCn2ncc(S(=O)(=O)NC(=O)Nc3c4c(cc5c3CCC5)CCC4)c2O1 (centres unmarked) [drawing 519]	–	No Curve	100 to 1000	–	< 100	–
O=C(Nc1c2c(cc3c1CCC3)CCC2)NS(=O)(=O)c1cnn2c1OCC1(CC1)C2 [drawing 528]	0.6	–	< 100	< 100	< 100	–
CN(C)[C@H]1COc2c(S(=O)(=O)NC(=O)Nc3c4c(cc5c3CCC5)CCC4)cnn2C1 [drawing 541]	0.2	No Curve	–	–	–	IC50 [2]: < 100 nM
CN[C@H]1COc2c(S(=O)(=O)NC(=O)Nc3c4c(cc5c3CCC5)CCC4)cnn2C1 [drawing 566]	<0.1	No Curve	–	–	–	IC50 [2]: < 100 nM
